How the values were obtained:
Adenosine receptor A1 = target: T1, Adenosine receptor A1 (Rattus norvegicus, UniProt P25099); test: Binding affinity to A1 adenosine receptor from rat cortical membrane in presence of [3H]R-(phenylisopropyl)-adenosine
T1 sequence (P25099 whole entry): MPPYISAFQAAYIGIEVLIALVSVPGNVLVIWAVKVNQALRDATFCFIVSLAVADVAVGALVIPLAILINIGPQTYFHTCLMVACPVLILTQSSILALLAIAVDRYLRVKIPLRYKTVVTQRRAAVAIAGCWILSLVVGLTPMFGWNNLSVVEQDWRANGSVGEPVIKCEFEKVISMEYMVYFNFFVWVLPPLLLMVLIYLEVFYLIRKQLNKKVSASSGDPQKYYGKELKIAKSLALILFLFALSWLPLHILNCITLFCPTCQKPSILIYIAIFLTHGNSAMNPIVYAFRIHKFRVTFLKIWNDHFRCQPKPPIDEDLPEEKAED

Adenosine A2 receptor = Adenosine A2 receptor (Rattus norvegicus, UniProt P29276+P30543); test: Binding affinity to A2 adenosine receptor from rat striatal membrane in presence of [3H]5'-(N-ethylcarboximido)-adenosine
[1] = target: Adenosine A2 receptor (Rattus norvegicus) (UniProt P29276+P30543); test: Percent inhibition of [3H]5'-(N-ethylcarboximido)-adenosine (NECA) binding to A2 adenosine receptor; format: protein assay; set-up: concentration or dose not given beside the values; settings: concentration not given here
[2] = target: T2, Adenosine receptor A1 (Rattus norvegicus) (UniProt P25099); test: Percent inhibition of [3H]R-(phenylisopropyl)-adenosine (PIA) binding to A1 adenosine receptor; settings: concentration not given here
T2 sequence (whole entry): T1 sequence (P25099 whole entry)

SMILES	Ki (Adenosine receptor A1)	Ki (Adenosine A2 receptor)	inhibition [1]	inhibition [2]
Cn1c(=O)c2cc(-c3ccccc3)n(C)c2n(C)c1=O	11000 nM	40000 nM	–	–
Cn1c(=O)c2cc(-c3ccccc3)[nH]c2n(C)c1=O	3100 nM	12000 nM	–	–
Cn1c(=O)c2c(ccn2C)n(C)c1=O	32000 nM	72000 nM	–	–
Cn1c(=O)c2c(cc(/C=C/c3ccccc3)n2O)n(C)c1=O	560 nM	1800 nM	–	–
CCCn1c(=O)[nH]c2cc[nH]c2c1=O	1700 nM	18000 nM	–	–
Cn1c(=O)c2c(cc(-c3ccccc3)n2C)n(C)c1=O	–	14000 nM	–	–
CCCn1c(=O)c2c(cc(-c3ccccc3)n2C)n(CCC)c1=O	–	5200 nM	–	–
Cn1c(=O)c2c(cc(-c3cccc4ccccc34)n2O)n(C)c1=O	> 30000 nM	> 100000 nM	38%	47%
CCCn1c(=O)c2c(ccn2C)n(CCC)c1=O	2300 nM	13000 nM	–	–
CCCn1c(=O)c2c(ncn2C)n(CCC)c1=O	–	10000 nM	–	–
Cn1c(=O)c2c(nc(-c3ccccc3)n2C)n(C)c1=O	–	25000 nM	–	–
Cn1c(=O)c2cc[nH]c2n(C)c1=O	43000 nM	> 250000 nM	39%	–
Cn1c(=O)c2c(cc(/C=C/c3ccccc3)n2C)n(C)c1=O	2600 nM	260 nM	–	–
Cn1c(=O)c2nc(-c3ccccc3)[nH]c2n(C)c1=O [8-PHENYL THEOPHYLLINE]	–	830 nM	–	–
Cn1c(=O)c2[nH]ccc2n(C)c1=O	5400 nM	12000 nM	–	–
Cn1c(=O)c2c(cc(-c3cccc4ccccc34)n2C)n(C)c1=O	9200 nM	> 30000 nM	22%	–
Cn1c(=O)c2[nH]c(-c3cccc4ccccc34)cc2n(C)c1=O	> 30000 nM	> 30000 nM	1.2%	33%
CCCn1c(=O)c2c(nc(-c3ccccc3)n2C)n(CCC)c1=O	–	15000 nM	–	–
Cn1c(=O)[nH]c2cc[nH]c2c1=O	2900 nM	34000 nM	–	–

The next lines start with the values.

Ki (Adenosine receptor A1)	Ki (Adenosine A2 receptor)	inhibition [1]	inhibition [2]	SMILES
47 nM	510 nM	–	–	Cn1c(=O)c2[nH]c(-c3ccccc3)cc2n(C)c1=O
165 nM	640 nM	–	–	Cn1c(=O)c2[nH]c(/C=C/c3ccccc3)cc2n(C)c1=O
39 nM	1200 nM	–	–	CCCn1c(=O)[nH]c2cc(-c3ccccc3)[nH]c2c1=O
270 nM	1100 nM	–	–	Cn1c(=O)c2c(cc(-c3ccc4ccccc4c3)n2C)n(C)c1=O
13 nM	450 nM	–	–	CCCn1c(=O)c2[nH]c(-c3ccccc3)cc2n(CCC)c1=O
220 nM	1000 nM	–	–	Cn1c(=O)c2c(cc(-c3ccc4ccccc4c3)n2O)n(C)c1=O
130 nM	16000 nM	–	–	CCCn1c(=O)c2[nH]c(N(C)C)cc2n(CCC)c1=O
26 nM	> 500 nM	34%	–	Cn1c(=O)c2[nH]c(-c3ccc4ccccc4c3)cc2n(C)c1=O
97 nM	2000 nM	–	–	Cn1c(=O)[nH]c2cc(-c3ccccc3)[nH]c2c1=O
440 nM	5100 nM	–	–	CCCn1c(=O)c2[nH]ccc2n(CCC)c1=O
